Tests used:
cultured nerve cells = assay: Action of protecting cultured nerve cells from glutamic acid toxicity (LDH leakage); format: cell-based, Wistar rat; settings: rat fetal cerebral cortex cells, 10 mM glutamic acid, 24 hours, read-out: ED50 (the source's name)
From the text: It is known that when the blood flow to the brain is temporarily clogged due to cerebral ischemia, hypoxia, or an trauma, delayed cerebral neuronal death is induced [Document: Brain Research, Vol. 239, 57 (1982)]. A possible cause of such damage of the cerebral nerve cells is excitatory toxicity due to an excitatory neutotransmitter such as glutamic acid or the like, which is excessively released with ischemia [Document: Trends in Neuroscience, vol. 10, 299 (1987)]. […] This is a problem to be solved by the invention. This action was evaluated by using the in vitro evaluation system which will be described below.
A fetus was taken from the abdomen of a Wistar female rat on the 18 to 19th day of pregnancy under aseptic conditions, and the head of the fetus was opened to extract the brain. The brain was placed in an ice-cooled L-15 medium, and the cerebral cortex was separated under a microscope. The cerebral cortexes of about 30 rats were cut into pieces, and then suspended in 10 ml of a 0.25% trypsin solution and 0.2 ml of a 0.01% DNase solution, followed by culture at 37° C. for 30 minutes. Then, 2 ml of serum was added to the solution, and immediately the resultant mixture was centrifuged at 120 rpm for 2 minutes to separate the precipitates. To the precipitates was added 7 ml of a DF medium (a medium obtained by adding 20 nM of transferrin, 5 μg/ml of insulin, 20 nM of progesterone,60 nM of selenite, 50 U/ml of penicillin, and 50 U/ml of streptomycin to a mixture equivalent amounts of Dulbecco modified Eagle medium and F-12 medium), followed by 20 pipetting operations using a 10-ml plastic pipette to obtain a cell suspension. The cell suspension was filtered with nylon mesh (pore diameter 43 μm) to fractionate isolated cells. The thus-obtained isolated cells were diluted with a DF medium to a concentration of 6.0×10^5 cells/ml, and 500 μl of the diluted cells was inoculated in each of the 48 wells of a 48-well culture plate precoated with polylysine, followed by culture at 37° C. for 1 day in the presence of 5% of CO2. On the 2nd day, the medium was changed to a new DF medium, and 10 μl of a solution of 0.5M glutamic acid in distilled water was added to each of the wells (the final glutamic acid concentration was 10 mM), followed by further culture at 37° C. for 24 hours in the presence 5% of CO2. A test compound was dissolved in distilled water, 10% or 100% DMSO or 10% methanol, and 5 μl of the solution was added to each of the wells immediately before glutamic acid was added. As an index of nerve cell damage, the enzyme activity of lactic acid dehydrogenase (LDH) leaking from the damaged cells into the medium was measured. For each of the test compounds, the LDH leakage was measured at each of concentrations to determine a dose-response curve by the modified Cochran-Armitige method. The 50% effective dose (ED50) of each of the test compounds we determined from the curve.

[1] = test system: middle cerebral artery ischemia model of rat; assay: Infarction inhibiting action in middle cerebral artery ischemia (MCAo-recirculation) model of rat; format: in vivo; settings: ip, 24 h, 3 mg/kg i.p. 10 minutes before occlusion and 1 hour after recirculation, infarction volume one day after, vs control group, read-out: Rate of inhibition of infarction
From the text: It is also known that, in this way, in the acute stage of cerebral infarction, the lesion proceeds to the peripheral tissue from the core of infarction, and death of the nerve cells is extended with the passage of several days. This possible not only extends and creates grave aftereffects, and causes loss of motor and mental function, but also finally critically influences on the life. As an in vivo experimental model of cerebral infarction which is capable of precisely evaluating the clinical effect of a medicine in conformity with clinical conditions of the disease of a patient of cerebral infarction, the middle cerebral artery occlusion (MCAo)-recirculation model comprising an embolus with a yarn using Wister rates may be used [Document: Japan Journal of Stroke, vol. 8, 1 (1986)]. […] This action was evaluated by applying the MCAo model by the method which will be described below.
In rats of 10 weeks old, after etherization, a median incision of the cervical region was made up to the right carotid artery bifurcation under 1.0% halothane anesthetization with care to preserve the vagus nerves. The common carotid artery and the external carotid artery were separated from the periphery connective tissue with the right carotid artery bifurcation as the center, and each of the arteries was ligated by a 6-0 silk yarn (Eto yarn). Further, a yarn was wound on the internal carotid artery origin in preparation for ligation and fixing after insertion of the embolus. Next, the common carotid artery was incised, and the embolus was inserted from the common carotid artery to the internal carotid artery by about 15 to 16 mm, and ligated and fixed to the internal carotid artery by the silk yarn at the end thereof near the nylon yarn. In this operation, the end of the embolus was inserted into the anterior cerebral artery by about 1 to 2 mm beyond the middle cerebral artery bifurcation, and the inlet of the middle cerebral artery was occluded by the body (resin part) of the embolus for 1 hours. In recirculation, the embolus with a yarn was removed to recirculate the blood flow to the middle cerebral artery. 3 mg/kg of each of test compounds was intraperitoneally administered 10 minutes before occlusion and 1 hour after recirculation of the blood flow. One day after occlusion and recirculation, the whole body was perfused with physiologic saline through the heart, and the brain was extracted. The extracted brain was cooled with ice and water for 5 minutes, and cut at intervals of 2.0 mm to form 7 sections of the cerebral coronal surface. Each of the sections was stained with TTC (Triphenyltetrazolium Chloride), and fixed by a 5% neutral buffer formalin solution. In each of the sections, the infarction area in the right cerebral hemisphere was measured by an image analyzer (Olympus), and the infarction was evaluated by volume (mm^3). The infarction volume was compared with the infarction volume of a control group to calculate the rate of inhibition of infarction.

O[C@@]12Cc3c([nH]c4c3ccc3ccccc34)[C@@H]3Oc4cccc5c4[C@@]31CCN(CC1CC1)[C@@H]2C5 [Compound 18, 17-cyclopropylmethyl-14β-hydroxy-6,7-dehydro-4,5α-epoxy-6,7,2',3'-(6',7'-benzoindolo)morphinan]
EC50 (cultured nerve cells): 900 nM | inhibition in vivo at 3 mg/kg [1]: 23%

O=C(NCCCn1c2c(c3ccc4ccccc4c31)C[C@@]1(O)[C@H]3Cc4ccc(O)c5c4[C@@]1(CCN3CC1CC1)[C@H]2O5)c1cccnc1 [Compound 66, 17-cyclopropylmethyl-3,14β-dihydroxy-6,7-dehydro-4,5α-epoxy-6,7,2',3'-[1'-(3-nicotinamidopropyl)-6',7'-benzoindolo]morphinan]
EC50 (cultured nerve cells): 400 nM | inhibition in vivo at 3 mg/kg [1]: 25%

Oc1ccc2c3c1O[C@H]1c4[nH]c5c6c(ccc5c4C[C@@]4(O)[C@@H](C2)N(CC2CC2)CC[C@]314)-c1ccccc1C6 [Compound 20, 17-cyclopropylmethyl-3,14β-dihydroxy-6,7-dehydro-4,5α-epoxy-6,7,2',3'-(6',7',3",2"-indenoindolo)morphinan]
EC50 (cultured nerve cells): 27 nM | inhibition in vivo at 3 mg/kg [1]: 10%

Oc1ccc2c3c1O[C@H]1c4c(c5ccc6ccccc6c5n4Cc4ccccc4)C[C@@]4(O)[C@@H](C2)N(CC2CC2)CC[C@]314 [Compound 69, 17-cyclopropylmethyl-3,14β-dihydroxy-6,7-dehydro-4,5α-epoxy-6,7,2',3'-(1'-benzyl-6',7'-benzoindolo)morphinan]
EC50 (cultured nerve cells): 9.3 nM | inhibition in vivo at 3 mg/kg [1]: 69%

Oc1ccc2c3c1O[C@H]1c4[nH]c5c(cc6c7c(cccc75)-c5ccccc5-6)c4C[C@@]4(O)[C@@H](C2)N(CC2CC2)CC[C@]314 [Compound 19, 17-cyclopropylmethyl-3,14β-dihydroxy-6,7-dehydro-4,5α-epoxy-6,7,2',3'-(5',6"-benzeno-6',7'-benzoindolo)morphinan]
EC50 (cultured nerve cells): 200 nM | inhibition in vivo at 3 mg/kg [1]: 29%

Oc1ccc2c3c1O[C@H]1c4[nH]c5ccc6ccccc6c5c4C[C@@]4(O)[C@@H](C2)N(CC2CC2)CC[C@]314 [Compound 8, 17-cyclopropylmethyl-3,14β-dihydroxy-6,7-dehydro-4,5α-epoxy-6,7,2',3'-(4',5'-benzoindolo)morphinan]
EC50 (cultured nerve cells): 200 nM | inhibition in vivo at 3 mg/kg [1]: 49%

COc1ccc2c3c1O[C@H]1c4[nH]c5c(ccc6ccccc65)c4C[C@@]4(O)[C@@H](C2)N(CC2CC2)CC[C@]314 [Compound 17, 17-cyclopropylmethyl-3-methoxy-14β-hydroxy-6,7-dehydro-4,5α-epoxy-6,7,2',3'-(6',7'-benzoindolo)morphinan]
EC50 (cultured nerve cells): 120 nM | inhibition in vivo at 3 mg/kg [1]: 56%

Oc1ccc2c3c1O[C@H]1c4c(c5ccc6ccccc6c5n4CCCNC(=S)NCc4ccccc4)C[C@@]4(O)[C@@H](C2)N(CC2CC2)CC[C@]314 [Compound 67, 17-cyclopropylmethyl-3,14β-dihydroxy-6,7-dehydro-4,5α-epoxy-6,7,2',3'-[1'-[3-(N'-benzylthioureido)propyl]-6',7'-benzoindolo]morphinan]
EC50 (cultured nerve cells): 27 nM | inhibition in vivo at 3 mg/kg [1]: 39%

Oc1ccc2c3c1O[C@H]1c4c(c5ccc6ccccc6c5n4Cc4ccc(F)cc4)C[C@@]4(O)[C@@H](C2)N(CC2CC2)CC[C@]314 [Compound 70]
EC50 (cultured nerve cells): 15 nM | inhibition in vivo at 3 mg/kg [1]: 34%

Oc1ccc2c3c1O[C@H]1c4[nH]c5c(ccc6ccccc65)c4C[C@@]4(O)[C@@H](C2)N(CC2CC2)CC[C@]314 [Compound 2, 17-cyclopropylmethyl-3,14β-dihydroxy-6,7-dehydro-4,5α-epoxy-6,7,2',3'-(6',7'-benzoindolo)morphinan]
EC50 (cultured nerve cells): 33 nM | inhibition in vivo at 3 mg/kg [1]: 72%

Oc1ccc2c3c1O[C@H]1c4[nH]c5c(cc(F)c6ccccc65)c4C[C@@]4(O)[C@@H](C2)N(CC2CC2)CC[C@]314 [Compound 14, 17-cyclopropylmethyl-3,14β-dihydroxy-6,7-dehydro-4,5α-epoxy-6,7,2',3'-(5'-fluoro-6',7'-benzoindolo)morphinan]
EC50 (cultured nerve cells): 86 nM | inhibition in vivo at 3 mg/kg [1]: 29%

— patent US6156762A, “Indolomorphinan derivative and agent for curing and preventing cerebral disorder” (Toray Industries, Inc., priority 1997, dated 2000)
